Results taken from patent publication US20190247396A1, “DENTAL TREATMENT” (KING'S COLLEGE LONDON, priority 2016, published 2019).
“Also recorded” adds a separate entry of the source.

Tests used:
[1] = system: human deciduous tooth dental pulp cells; settings: cited from earlier work
[2] = system: Axin2 (Wnt activity) in 171A4 mouse dental pulp cells; assay: In vitro drug release from Kolspon sponge, Axin2 qPCR; type: cell-based; settings: for Wnt activity (Axin2 qPCR): drug in collagen sponge incubated with cells, 50 nM BIO, 50 nM Tideglusib, vs media or sponge without drug
Method: In vitro drug release from Kolspon sponge was tested. 171A4 cells were plated in 24-well plates and incubated (37° C., 5% CO2/95% air, 100% humidity) for 24 h using standard culture medium. Falcon™ cell culture inserts for use with 24-well plates ([…]) were placed in the wells carrying 96 mm^2 Kolspon cubes either dry or soaked in 30 μl of the drug optimal concentration for 15 and 30 minutes, 1, 6, and 12 hours. The cells were collected with TRIzol and stored at −20° C.
RNA was extracted from the cells using TRIzol (Thermo Fisher Scientific) as recommended by the manufacturer. RNA was quantified using Nanodrop and reverse transcribed into cDNA. Beta-actin was used as housekeeping gene (Forward-[…] (SEQ ID NO 1), Reverse-[…]) (SEQ ID NO 2) and Axin2 for Wnt activity (Forward-[…] (SEQ ID NO 3), Reverse- TGCCCACACTAGGCTGACA (SEQ ID NO 4).

[3] = system: mouse maxillary first molars; assay: Reparative dentine formation after pulp exposure, micro-CT mineral analysis; type: in vivo
Method: T filled with mineral=0.0017 mg.

[4] = system: mouse maxillary first molars; settings: in vivo
Method: (§3) To test the induction of Axin2 in vivo, an injury model was developed. Mice were anaesthetized with a solution of Hypnorm (Fentanyl/fluanisone—VetaPharma Ltd.), water and Hypnovel (Midazolam—Roche) in the ratio 1:2:1 at 10 ml/kg by an intraperitoneal injection. Experimental tooth damage was created by drilling and making 0.13 mm holes in mouse maxillary first molars to expose the pulp. A rounded carbide bur FG ¼ coupled to a high speed hand piece was used to access the dentine. Once the bur cut exposed the dentine, a 30G needle was used to penetrate the pulp.
(§4) In order to protect the pulp from external contamination and stimulate dentine repair, the injury was capped either with ProRoot Mineral Trioxide Aggregate (MTA) (Maillfer Dentsply), or Kolspon (Fish Collage Type 1—Eucare Ltd) alone, or in association with 50 nM BIO (SIGMA), 5 μM CHIR99021 (SIGMA), or 50 nM Tideglusib (SIGMA) dissolved and diluted in DMSO, in contact with the pulp. Pieces of Kolspon were cut to size and soaked in solutions of the three inhibitors before being physically placed into the holes, in contact with the pulp.
(§5) The model described in Example 2 was then used to examine the effect on the formation of reparative dentine. Molars were drilled and sponges inserted and left as described in Example 2, this time for 4-6 weeks before the mice were sacrificed.
(§6) After 4 weeks decalcification in 19% EDTA the teeth were embedded in wax blocks and sectioned using 0.8 μm thickness. Sections were stained using Masson's Trichrome to reveal new dentine formation.

[5] = system: Axin2 (Wnt activity) in dental pulp cells; assay: Induction of Axin2 in vivo, pulp exposure injury model, qPCR of pulp cells; set-up: species or system mouse; settings: one day after injury and capping; vs control, MTA or collagen sponge
Method: A glass ionomer cement was used to cover the sponge and protect the tooth (FIG. 2G). Specifically, a layer of 3M Ketac-Cem Radiopaque was used as a capping material to seal the injured site. The injury was performed on the two upper first molars. Post-op the mice were given Vetergesic (Buprenorphine—Ceva) at the rate of 0.3 mg/kg intraperitonially as analgesic. The animals were sacrificed after 1 day.
Treated teeth were removed after 24 h along with controls consisting of untreated teeth, MTA only and collagen sponge with no inhibitor.
Molars were extracted using a 21G needle as an elevator to lift them from the alveolar bone and kept in ice cold PBS. Using a 23 scalpel blade the molars were separated at the crown-root junction, so that the pulp chamber could be visualized. Using a 0.6 mm straight tip tweezer the pulp was gently scraped from the pulp chamber and the root canal. The pulp was then placed into cold Sigma RNAlater and stored at −80° C.
The extracted cells were tested for expression of Axin2 by qPCR as described in Example 1 (FIG. 1E). Expression of Axin2 was 3× higher in inhibitor treated pulp cells when compared to controls (FIG. 1E).

[6] = system: mouse maxillary first molars; assay: Reparative dentine formation after pulp exposure, Masson's Trichrome histology
Method: as §3, §4, §5, §6

[7] = system: mouse maxillary first molars; assay: Reactionary dentine formation, non-exposed pulp injury model, Masson's Trichrome histology; settings: for Structure of reactionary dentine (histology): 4 weeks after injury without pulp exposure
Method: (§1) To investigate the effect of modulation of Wnt signaling on reactionary dentine formation, a reproducible tooth damage model was established. 6 weeks old, Axin2^−CreERT2; Rosa26−mTmG (fl/+) and GPR1777(Wntless)^−pCAGCreERT2 (fl/fl) mice were injected intraperitoneally with three doses of tamoxifen (2 mg per 30 g mouse, SIGMA), one dose a day. 5 days after the last tamoxifen injection, the height of the middle cusp of mouse maxillary first molars were reduced without exposing the dental pulp, leaving a band of dentine to protect the inner pulp tissue (FIG. 5).
The exposed dentine was capped either with calcium hydroxide (Dycal; Dentsply) or mineral trioxide aggregate (MTA) (ProRoot MTA; Dentsply), or dry collagen sponge (Kolspon-Fish Collage Type 1; Eucare Ltd), or collagen sponge soaked in dimethyl sulfoxide (DMSO; SIGMA), or 50 nM Tideglusib, or 1 μM LY2157299, or 1 μM Dorsomorphin. All drugs were dissolved and diluted in DMSO. A layer of glass ionomer cement (Ketac-Cem Radiopaque; 3M ESPE) was used as a sealing material. Vetergesic (Buprenorphine—Ceva) was injected to all mice post-operative at the rate of 0.3 mg/kg by intraperitoneal injection as analgesic. The animals were sacrificed after 1 day and 4 weeks. A total of 14 genetically-modified mice (28 damaged molars) and 26 CD1 mice (52 molars) were used.
After 4 weeks decalcification in 19% EDTA pH 6, the teeth were embedded in wax blocks and sectioned at 8 μm thickness. Sections were histologically stained using Masson's Trichrome.
Sequestered latent BMP and TGF-β proteins present in the dentine matrix have been implicated in tertiary dentine formation following damage, mainly based on results obtained from in vitro experiments. The effect of inhibition of these signalling pathways in was investigated in the in vivo model of reactionary dentine formation described in Example 5 by utilising small molecules to inhibit these signalling pathways. The small molecule LY2157299 is a TGF-β type I receptor kinase inhibitor and the small molecule Dorsomorphin is an inhibitor of BMP type I receptors ALK2, ALK3 and ALK6 (Bhola et al. 2013, Yu et al. 2008). Both compounds were first tested for cytotoxicity and effectiveness of signalling pathway blocking in vitro using 17IA4 cells. The first upper molars of CD1 mice were damaged to stimulate reactionary dentine formation and a collagen sponge was soaked in either 1 μM LY2157299 or 1 μM Dorsomorphin was used as a delivery vehicle. The sponges were placed on the exposed dentine and sealed with a layer of glass ionomer.

[8] = system: Axin2 (Wnt activity) in dental pulp; assay: Axin2 qPCR of dental pulp one day after dentine injury without pulp exposure; type: in vivo, mouse
Method: All drugs were dissolved and diluted in DMSO.
(§2) Since Wnt/β-catenin signaling is required for reparative dentine formation we investigated if this pathway plays a role in reactionary dentine formation. The small molecule GSK3 antagonist Tideglusib was delivered on collagen sponges at the site of damage and sealed with glass ionomer. Sponge alone and MTA sealed with glass ionomer were used as controls. To identify whether cells responded to the drug, TCF/Lef:H2B-GFP, Axin2^−CreERT2; Rosa26−mTmG flox/+ and CD1 wild type mice were used. TCF/Lef:H2B-GFP reporter mice allowed the visualisation of Wnt active cells (ie. Cells receiving a Wnt signal), Axin2^−CreERT2; Rosa26−mTmG flox/+ mice were used to lineage trace Axin2-expressing cells and gene expression analysis via qPCR (as described in Example 1) was performed on pulp cells from CD1 mouse molars. The first molars of genetically modified mice were collected 1 day after the injury and immunohistochemistry was performed. Deparaffinised sections were retrieved with sodium citrate (pH 6) and incubated with chicken polyclonal anti-GFP antibody (1:500; Abcam, Cambridge, Mass., USA; ab13970) overnight at 4° C. Sections were washed and exposed to appropriate biotinylated secondary antibody, then horseradish peroxidase (HRP)-conjugated streptavidin-biotin antibody and washed with PBST. […]

[9] = system: mouse maxillary first molars; assay: Reactionary dentine formation, non-exposed pulp injury model, micro-CT mineral content and linear measurement; type: in vivo; settings: 50 nM, 4 weeks
Method: as §1
The exposed dentine was capped either with calcium hydroxide (Dycal; Dentsply) or mineral trioxide aggregate (MTA) (ProRoot MTA; Dentsply), or dry collagen sponge (Kolspon-Fish Collage Type 1; Eucare Ltd), or collagen sponge soaked in dimethyl sulfoxide (DMSO; SIGMA), or 50 nM Tideglusib, or 1 μM LY2157299, or 1 μM Dorsomorphin. All drugs were dissolved and diluted in DMSO. […]
Mice upper molars were dissected, fixed in 4% paraformaldehyde (PFA) for 24-hours at 4° C. and scanned using a Bruker Skyscan1272 micro-CT (pCT) scanner. […] The dentine thickness was measured using the “Line” function of the software. For the dentine thickness-analysis the distance between the center of the roof of the middle pulp horn and the floor of the injured dentine margin was measured. […] The region measured comprised only the site of injury. […]

[10] = system: TCF/Lef:H2B-GFP and Axin2-CreERT2 Wnt responsive cells; assay: GFP immunohistochemistry of Wnt responsive cells in reporter mice 1 day after injury; type: in vivo, mouse
Source text: as §2, with “PBST. Immunoreactivity was visualized with MenaPath green chromogen kit (Bio SB).” for “PBST.”

In the case of O=C1Nc2cc(Br)ccc2/C1=C1/Nc2ccccc2/C1=N\O [BIO, 6-bromoindirubin-3′-oxime], the “Differentiation state of dental pulp cells” value [1] is given as “maintain human deciduous tooth dental pulp cells in the undifferentiated state”, the “Proliferation of dental pulp cells” value [1] is given as “reduce proliferation” and the “BIO induction of Axin2 expression relative to CHIR99021 and Tideglusib” value ([2]; FIG. 1D) is given as 4 ×. The “Wnt activity (Axin2 qPCR)” value [2] was “Wnt activity increases after 30 minutes of incubation and remains elevated”, the “MicroCT appearance of injury site” value ([3]; 4 weeks) was “mature mineral at the injury site” and the “MicroCT appearance of injury site” value ([3]; 6 weeks) was “injury site filled with mature dentine”. The Pulp vitality [4] was “dental pulp remained vital”, the “Wnt activity / Axin2 expression (qPCR) in dental pulp cells” value [5] was “significant upregulation of Wnt activity” and the “Histology of reparative dentine formation” value ([6]; 4 weeks) was “dense dentine formation at the injury site with vital pulp”. The “Histology of reparative dentine formation” value ([6]; 6 weeks) was “filled the whole injury site from occlusal to pulp chamber roof; also recorded: new mature dentine formed where the sponge was placed filling the injury site”.
With Cc1cccc(-c2nn3c(c2-c2ccnc4ccc(C(N)=O)cc24)CCC3)n1 [LY2157299] the “Structure of reactionary dentine (histology)” value [7] was “disorganised (globular) dentine; also recorded: atypical globular dentine without tubular reactionary dentine features”.
With O=c1sn(-c2cccc3ccccc23)c(=O)n1Cc1ccccc1 [Tideglusib, 4-Benzyl-2—(naphthalen-1-yl)-[1,2,4]thiadiazolidine-3,5-dione] the “Wnt activity / early-response Axin2 expression (qPCR)” value ([8]; 1 day after injury without pulp exposure) was “significant upregulation of Wnt activity”, the “Axin2 expression compared to controls” value ([8]; 1 day after injury, FIG. 8E) was 2 fold and the “Wnt activity (Axin2 qPCR)” value [2] was “Wnt activity increases after 30 minutes of incubation and remains elevated”. For the same molecule, the “MicroCT appearance of injury site” value ([3]; 4 weeks) was “mature mineral at the injury site”, the “MicroCT appearance of injury site” value ([3]; 6 weeks) was “mature reparative dentine formed at the injury site almost at the same Radiopacity as the primary/secondary dentine” and the “Amount of reactionary dentine formation (histology) compared with controls” value ([7]; 50 nM in collagen sponge, 4 weeks) was “larger reactionary dentine secretion; also recorded: enhanced reactionary dentine formation”. The “Structure of reactionary dentine (histology)” value [7] was “normal tubular reactionary dentine formation”, the “Pulp / tooth vitality” value ([7]; mouse, in vivo) was “dental pulp remained vital” and the Pulp vitality [4] was “dental pulp remained vital”. The “Wnt activity / Axin2 expression (qPCR) in dental pulp cells” value [5] was “significant upregulation of Wnt activity”, the “Histology of reparative dentine formation” value ([6]; 4 weeks) was “dense dentine formation at the injury site with vital pulp” and the “Histology of reparative dentine formation” value ([6]; 6 weeks) was “filled the whole injury site from occlusal to pulp chamber roof; also recorded: complete repair with vital dental pulp”. For the same molecule, the “Mineral band thickness at the site of injury (linear measurement) vs collagen sponge alone” value ([9]; FIG. 9E) was “thicker mineral band”, the “Mineral content under the injury site (micro-CT)” value ([9]; vs collagen sponge alone, FIG. 9D) was “high mineral content; also recorded: increase of mature mineral formation” and the “Axin2+ (GFP-positive) cells in the dental pulp” value ([10]; Axin2-CreERT2, Rosa26-mTmG mice, vs collagen sponge only) was “increase of TCF/LEF+cells and Axin2+ cells; also recorded: more GFP-positive cells”. The “Wnt responsive (TCF/LEF+, GFP) cells under the injury” value ([10]; TCF/Lef:H2B-GFP reporter mice, vs collagen sponge alone) was “increase of TCF/LEF+cells; also recorded: increased local response to Wnt signalling”.
